Data reported in US10576059B2, “Substituted phenylpyrrolecarboxamides with therapeutic activity in HIV” (New York Blood Center, Inc., priority 2014, dated 2020).
Read-outs that look alike come from different tables or passages of the source.

Columns and labels:
Format in all cases: cell-based
[1] = tested on: HIV-1 pseudovirus pseudotyped with HXB2 Env; assay: microbe, parasite or virus in culture; conditions: TZM-bl cells, HIV-1 pseudovirus with HXB2 Env
[2] = tested on: panel of HIV-1 ENV-pseudoviruses (subtype A, A/D, A2/D, A/E, A/G, B, C and D); assay: microbe, parasite or virus in culture
[3] = Cytotoxicity in TZM-bl cells (XTT); conditions: human
Procedure: (§1) The cytotoxicity of test compounds in TZM-bl cells was also measured by the XTT method described previously^7. […] The soluble intracellular formazan was quantitated colorimetrically at 450 nm 4 h later. The percent of cytotoxicity and the CC50 values were calculated as above. (See Table 4)

TZM-bl cells = assay: Cytotoxicity in TZM-bl cells (XTT); conditions: 3 days
Procedure: as §1

PBMC = assay: Cytotoxicity in PBMC (XTT); conditions: 7 days
Procedure: For the PBMC toxicity assay we used 5×10^5 cells/ml and the cytotoxicity of the compounds was measured after 7 days of incubation as previously reported^8. Following the addition of XTT the soluble intracellular formazan was quantitated colorimetrically at 450 nm 4 h later. The percent of cytotoxicity and the CC50 values were calculated as above. (See Table 4)

[4] = Human immunodeficiency virus 1, HXB2, TZM-bl

SMILES: Cc1nc(C(NC(=O)c2ccc(-c3ccc(Cl)c(F)c3)[nH]2)C2CCCCN2)sc1CO (single isomer, unassigned) [Compound 20]
- IC50 [1, 4]: 3 ± 0.4 µM

SMILES: Cc1ccc(-c2ccc(C(=O)NC(c3nc(C)c(CO)s3)C3CCCCN3)[nH]2)cc1F (single isomer, unassigned) [Compound 22]
- IC50 [1, 4]: 2.7 ± 0.2 µM

SMILES: Cc1ccc(-c2ccc(C(=O)NC(c3nc(C)c(CCO)s3)C3CCCCN3)[nH]2)cc1F (single isomer, unassigned) [Compound 24]
- IC50 [1, 4]: 10.6 ± 0.1 µM

SMILES: Cc1nc(C(NC(=O)c2ccc(-c3ccc(Cl)c(F)c3)[nH]2)C2CCCCN2)sc1CCO (single isomer, unassigned) [Compound 26]
- IC50 [1, 4]: 7.5 ± 0.2 µM

SMILES: Cc1nc(C(NC(=O)c2ccc(-c3ccc(Cl)cc3)[nH]2)C2CCCCN2)sc1CCO (single isomer, unassigned) [Compound 28]
- IC50 [1, 4]: 8.9 ± 0.2 µM

SMILES: Cc1ccc(-c2ccc(C(=O)NC(c3nc(C)c(CCCO)s3)C3CCCCN3)[nH]2)cc1F (single isomer, unassigned) [Compound 30]
- IC50 [1, 4]: 11.2 ± 0.7 µM

SMILES: Cc1nc(C(NC(=O)c2ccc(-c3ccc(Cl)c(F)c3)[nH]2)C2CCCCN2)sc1CCCO (single isomer, unassigned) [Compound 31]
- IC50 [1, 4]: 5.1 ± 0.7 µM

SMILES: Cc1nc(C(NC(=O)c2ccc(-c3ccc(Cl)cc3)[nH]2)C2CCCCN2)[nH]c1CO (single isomer, unassigned) [Compound 33]
- IC50 [1, 4]: 14 ± 0.1 µM

SMILES: Cc1nc(C(NC(=O)c2ccc(-c3ccc(Cl)c(F)c3)[nH]2)C2CCCCN2)[nH]c1CO (single isomer, unassigned) [Compound 35]
- IC50 [1, 4]: 9 ± 0.2 µM

SMILES: Cc1nc(C(CN)NC(=O)c2ccc(-c3ccc(Cl)cc3)[nH]2)sc1CO (single isomer, unassigned) [Compound 40]
- IC50 ([2]; Human immunodeficiency virus 1, TZM-bl, read-out: IC50 (μM) ± S.D., subtype B, ENV B41): 0.28 ± 0.03 µM
- IC50 ([2]; Human immunodeficiency virus 1, TZM-bl, read-out: IC50 (μM) ± S.D., subtype B, NIH # 11024, ENV AC10.0, clone 29): 0.29 ± 0.03 µM
- IC50 ([2]; Human immunodeficiency virus 1, TZM-bl, read-out: IC50 (μM) ± S.D., subtype B, NIH # 11578, ENV pWEAUd15.410.5017): 0.28 ± 0.04 µM
- IC50 ([2]; subtype A, ENV BG505-T332N, read-out: IC50 (μM) ± S.D.): 0.33 ± 0.04 µM

SMILES: Cc1ccc(-c2ccc(C(=O)NC(CN)c3nc(C)c(CO)s3)[nH]2)cc1F (single isomer, unassigned) [Compound 43]
- IC50 [1, 4]: 1.7 ± 0.4 µM

SMILES: Cc1nc(C(CNC(=N)N)NC(=O)c2ccc(-c3ccc(Cl)cc3)[nH]2)sc1CO (single isomer, unassigned) [Compound 45]
- IC50 [1, 4]: > 37 µM

SMILES: Cc1nc(C(CNC(=N)N)NC(=O)c2ccc(-c3ccc(Cl)c(F)c3)[nH]2)sc1CO (single isomer, unassigned) [Compound 48]
- IC50 [1, 4]: > 27 µM

SMILES: Cc1ccc(-c2ccc(C(=O)NC(CNC(=N)N)c3nc(C)c(CO)s3)[nH]2)cc1F (single isomer, unassigned) [Compound 49]
- IC50 [1, 4]: > 28 µM

SMILES: Cc1nc(C(CN)NC(=O)c2ccc(-c3ccc(Cl)c(F)c3)[nH]2)sc1CO (single isomer, unassigned) [Compound 51]
- IC50 [1, 4]: 1.4 ± 0.5 µM

SMILES: O=C(NC(c1ccccc1)c1ccc[nH]1)c1ccc(-c2ccc(Cl)cc2)[nH]1 (stereo not drawn) [Compound 1]
- IC50 [1, 4]: 16.4 ± 1.5 µM

SMILES: Nc1nc(CNC(=O)c2ccc(-c3ccc(Cl)cc3)[nH]2)n[nH]1 [Compound 2]
- IC50 [1, 4]: > 63 µM

SMILES: N=C(N)Nc1ccc(CC(NC(=O)c2ccc(-c3ccc(Cl)cc3)[nH]2)C(=O)N2CCOCC2)cc1 (stereo not drawn) [Compound 3]
- IC50 [1, 4]: > 36 µM

SMILES: N=C(N)NCCCC(NC(=O)c1ccc(-c2ccc(Cl)cc2)[nH]1)C(=O)NCCO (stereo not drawn) [Compound 4]
- IC50 [1, 4]: > 44 µM

SMILES: N=C(N)NCCCC(NC(=O)c1ccc(-c2ccccc2)[nH]1)C(=O)NCCO (stereo not drawn) [Compound 5]
- IC50 [1, 4]: > 47 µM

SMILES: CS(=O)(=O)NCCNC(=O)C(CCCNC(=N)N)NC(=O)c1ccc(-c2ccc(Cl)cc2)[nH]1 (stereo not drawn) [Compound 6]
- IC50 [1, 4]: > 37 µM

SMILES: CS(=O)(=O)NCCNC(=O)C(CCCNC(=N)N)NC(=O)c1ccc(-c2ccccc2)[nH]1 (stereo not drawn) [Compound 7]
- IC50 [1, 4]: > 43 µM

SMILES: CN1CCN(NC(=O)C(CCCNC(=N)N)NC(=O)c2ccc(-c3ccc(Cl)cc3)[nH]2)CC1 (stereo not drawn) [Compound 8]
- IC50 [1, 4]: > 42 µM

SMILES: N=C(N)NCCCC(NC(=O)c1ccc(-c2ccc(Cl)cc2)[nH]1)C(=O)NN1CCOCC1 (stereo not drawn) [Compound 9]
- IC50 [1, 4]: > 40 µM

SMILES: N=C(N)NCCCC(NC(=O)c1ccc(-c2ccccc2)[nH]1)C(=O)NN1CCOCC1 (stereo not drawn) [Compound 10]
- IC50 [1, 4]: > 43 µM

SMILES: Cc1n[nH]c(C)c1CNC(=O)c1ccc(-c2ccc(Cl)cc2)[nH]1 [Compound 11]
- IC50 [1, 4]: ~60 µM

SMILES: Cc1nccn1Cc1ccc(CNC(=O)c2ccc(-c3ccc(Cl)cc3)[nH]2)o1 [Compound 12]
- IC50 [1, 4]: 14.1 ± 1.3 µM

SMILES: CCN(CC)Cc1ccc(OC)c(CNC(=O)c2ccc(-c3ccc(Cl)cc3)[nH]2)c1 [Compound 13]
- IC50 [1, 4]: 4.3 ± 0.1 µM

SMILES: NS(=O)(=O)c1ccc(CCNC(=O)c2ccc(-c3ccc(Cl)cc3)[nH]2)cc1 [Compound 14]
- IC50 [1, 4]: > 50 µM

SMILES: Cc1nc(C(NC(=O)c2ccc(-c3ccc(Cl)cc3)[nH]2)C2CCCCN2)sc1CCCO (stereo not drawn) [Compound 32]
- IC50 [1, 4]: 7.6 ± 0.8 µM

SMILES: CNc1cc(NC(=O)c2ccc(-c3ccc(F)c(Cl)c3)[nH]2)nc(NC(=N)N)n1 [Compound 53]
- IC50 [1, 4]: > 36 µM

SMILES: Cc1nc(C(CN)NC(=O)c2cc3cc(Cl)ccc3[nH]2)sc1CO (stereo not drawn) [Compound 60]
- CC50 at 3 days [3]: ~47 µM
- IC50 [1, 4]: > 40 µM

SMILES: Cc1nc(C(CN)NC(=O)c2cc3cc(Cl)ccc3[nH]2)sc1CO (stereo not drawn) [Compound 61]
- CC50 (TZM-bl cells): > 55 µM
- IC50 [1]: ~50 µM

SMILES: Cc1nc(C(CN)NC(=O)c2cc3ccccc3[nH]2)sc1CO (stereo not drawn) [Compound 62]
- CC50 at 3 days [3]: > 60 µM
- IC50 [1, 4]: > 60 µM

SMILES: Cc1nc(C(CN)NC(=O)c2cc3ccccc3[nH]2)sc1CO (stereo not drawn) [Compound 63]
- CC50 (TZM-bl cells): > 60 µM
- IC50 [1]: > 60 µM

SMILES: CC(=O)NCC(NC(=O)c1ccc(-c2ccc(Cl)c(F)c2)[nH]1)c1nc(C)c(CO)s1 (stereo not drawn) [Compound 64]
- IC50 [1, 4]: ~40 µM

SMILES: CC(=O)NCC(NC(=O)c1ccc(-c2ccc(Cl)c(F)c2)[nH]1)c1nc(C)c(CO)s1 (stereo not drawn) [Compound 65]
- IC50 [1]: ~40 µM

SMILES: Cc1nc(C(CN(C)C)NC(=O)c2ccc(-c3ccc(Cl)cc3)[nH]2)sc1CO (stereo not drawn) [Compound 66]
- IC50 [1, 4]: 16.5 ± 3.4 µM

SMILES: CC(=O)NCC(NC(=O)c1ccc(-c2ccc(Cl)c(F)c2)[nH]1)c1nc(C)c(COC(C)=O)s1 (stereo not drawn) [Compound 70]
- IC50 [1, 4]: > 40 µM

SMILES: Cc1nc(C(CN(C)C)NC(=O)c2ccc(-c3ccc(Cl)c(F)c3)[nH]2)sc1CO (stereo not drawn) [Compound 71]
- IC50 [1, 4]: 3.6 ± 1 µM

SMILES: Cc1cc(-c2ccc(Cl)cc2)[nH]c1C(=O)NC(CN)c1nc(C)c(CO)s1 (stereo not drawn) [Compound 73]
- IC50 [1, 4]: 2.2 ± 0.8 µM

SMILES: Cc1ccc(-c2ccc(C(=O)NC(CCN(C)C)c3nc(C)c(CO)s3)[nH]2)cc1F (stereo not drawn) [Compound 76]
- IC50 [1, 4]: 11 ± 2.5 µM

SMILES: Cc1nc(C(CCN(C)C)NC(=O)c2ccc(-c3ccc(Cl)cc3)[nH]2)sc1CO (stereo not drawn) [Compound 80]
- IC50 [1, 4]: 14.2 ± 0.7 µM

SMILES: Cc1nc(C(CCN)NC(=O)c2ccc(-c3ccc(Cl)c(F)c3)[nH]2)sc1CO (stereo not drawn) [Compound 90]
- IC50 [1, 4]: 4.1 ± 1.5 µM

SMILES: NCC(NC(=O)c1ccc(-c2ccc(Cl)c(F)c2)[nH]1)c1ncc(CO)s1 (stereo not drawn) [Compound 94]
- IC50 [1, 4]: 1.1 ± 0.8 µM

SMILES: Cc1nc(C(CN)NC(=O)c2cnc(-c3ccc(Cl)cc3)[nH]2)sc1CO (stereo not drawn) [Compound 97]
- IC50 [1, 4]: > 51 µM

SMILES: Cc1nc(C(CN)NC(=O)c2cnc(-c3ccc(Cl)cc3)[nH]2)sc1CO (stereo not drawn) [Compound 98]
- IC50 [1]: > 51 µM

SMILES: Cc1nc(C(CN)NC(=O)c2ncc(-c3ccc(Cl)cc3)[nH]2)sc1CO (stereo not drawn) [Compound 99]
- IC50 [1, 4]: 34.9 ± 3 µM

SMILES: Cc1cc(C(=O)NC(CN)c2nc(C)c(CO)s2)[nH]c1-c1ccc(Cl)cc1 (stereo not drawn) [Compound 101]
- IC50 [1, 4]: 3.6 ± 0.4 µM

SMILES: Cc1nc(C(NC(=O)C(=O)Nc2ccc(Cl)cc2)C2CCCCN2)sc1CO (stereo not drawn) [NBD-09027]
- CC50 (PBMC): > 160 µM
